{"source": "patent US11643405B2", "about": "“Compound for treatment or prevention of liver diseases” (JIANGSU ATOM BIOSCIENCE AND PHARMACEUTICAL CO., LTD., priority 2018, dated 2023)", "key": {"[1]": {"test": "Determination of compound solubility in PBS buffer (LC-MS/MS)", "format": "physicochemical", "conditions": "for solubility at 2 h: PBS buffer, aqueous buffer, kinetic from dmso stock, stirred 2 hours, read-out: Solubility", "experimental": "The test compounds were 7, 67 and 85, respectively; the control compound was silymarin, purchased from Shanghai Dibai Biotechnology Co., Ltd., with the batch number HH06. Both the test compounds and the control compound were prepared into 10 mM stock solutions using DMSO. Phosphate buffered saline (PBS), with pH of 4.0 and 7.4, was used to test the solubility of the test compounds.\nTreatment of test compound and control compound: 30 μL of test compound or control compound stock solution (10 mM) per well was added in a specially made solubility sample plate, and then 970 μL of PBS with different pH was added to each well (pH was 4.0 and 7.4, respectively). Repeated wells were set in the test. A stir bar was added to each well that was covered with a polytetrafluoroethylene or silica gel plug. Stirring was performed at 25° C. at 1100 rpm for 2 hours. 10 μL of sample was taken from each well, and then 990 μL of water and acetonitrile mixture (including internal standard substance) was added to mix well, followed by filtering with a filter plate.\nStandard treatment: 10 mM stock solution was diluted with DMSO to 300 μM, then 10 μL of compound diluent was taken, and 990 μL of water and acetonitrile mixture (including internal standard substance) was added to mix well and formulated into a standard solution with the final concentration 3 μM.\nThe solubility sample plate was placed in the autosampler and the LC-MS/MS method was used for analysis. The concentration of the test compound was calculated by the response value of the test compound and standard, and the concentration of the standard."}, "[2]": {"test": "in vivo", "conditions": "both sexes, ICR, mouse, po", "experimental": "The test compound was compound 7; the positive control silymarin was purchased from Shanghai Dibai Biotechnology Co., Ltd., with the batch number HH06. Immediately before use, the suspension was prepared with normal saline and ultrasound to prepare a suspension with a corresponding concentration.\nLow-dose group (1.5 g/kg) solution preparation: the quantitative test compound 7 or positive control compound was precisely weighed, and a certain amount of normal saline was added to prepare the oral suspension solution with the concentration of 75 mg/mL. The administration volume was 20 mL/kg.\nHigh-dose group (3.0 g/kg) solution preparation: the quantitative test compound 7 or positive control compound was precisely weighed, and a certain amount of normal saline was added to prepare the oral suspension solution with the concentration of 150 mg/mL. The administration volume was 20 mL/kg.\nICR mice, SPF grade, weight: 16-18 g, 6-8 weeks old. Provided by Nantong University, laboratory animal production license number: SCXK (Su) 2014-0001; laboratory animal use license: SYXK (Su) 2017-0007.\n16 ICR mice were randomly divided into compound 7 low-dose group, compound 7 high-dose group, silymarin low-dose group and silymarin high-dose group, with 4 mice in each group, half male and half female. […]"}, "[3]": {"tested_on": "zebrafish non-alcoholic fatty liver", "test": "Fat reduction or elimination effect on thioacetamide-induced zebrafish non-alcoholic fatty liver (Oil Red O staining)", "format": "in vivo", "conditions": "for The total optical density of liver fat: mean ± SE, n = 10", "experimental": "40 mM stock solution of test compounds 4, 5, 6, 7, 46, 67, 78, 85, 92 and 101 were prepared with DMSO, and stored in a refrigerator at −20° C. The positive control compound S-adenosylmethionine (SAM) was purchased from Aladdin Reagent (Shanghai) Co., Ltd., with the batch number F1523051, which was prepared into a 50 mM stock solution with DMSO. The control compound silymarin was purchased from Shanghai Dibai Biotechnology Co., Ltd., with the batch number EE09, which was prepared into a 40 mM stock solution with DMSO. Thioacetamide was purchased from Sigma-Aldrich, with the batch number BCBV3031, which wasprepared into a 1 M stock solution with DMSO. Oil Red O was purchased from Sigma-Aldrich, with the batch number SLBP5248V. 4% paraformaldehyde was purchased from Dingguo Biotechnology Co., Ltd., with the batch number 773001800. Propylene glycol was purchased from Sinopharm Chemical Reagent Co., Ltd., with the batch number 20170615.\nThe melanin allele mutant translucent Albino line zebrafish was reproduced in natural paired mating. The fish age was 3 days after fertilization, with 30 fish per experimental group.\nThe above zebrafish were raised in fish farming water at 28° C. (water quality: 200 mg instant sea salt was added to 1 L of reverse osmosis water, conductivity was 480-510 μS/cm; pH was 6.9-7.2; hardness was 53.7-71.6 mg/L CaCOs), the experimental animal use license number was: SYXK (Zhejiang) 2012-0171. Feeding management met the requirements of international AAALAC certification.\nThree days after fertilization, the normal melanin allele mutant translucent Albino strain of zebrafish was randomly selected and placed in a six well plate with 30 fish per well (i.e. each experimental group), and then thioacetamide with the final concentration of 7 mM was used to treat zebrafish for 72 hours to establish the non-alcoholic fatty liver model.\nThe zebrafish were transferred to a six-well plate, with 30 fish per well (i.e., each experimental group) randomly. Non-alcoholic fatty liver model in zebrafish were induced by thioacetamide. 40 mM test compounds 4, 5, 6, 7, 46, 67, 78, 85, 92 and 101 were quantitatively transferred to a six-well plate, and diluted with water to the corresponding concentration. Test compounds 4, 5, 6 and 7 were formulated into two dose groups with final concentration of 100 μM and 200 μM, respectively; test compound 46 was formulated into a dose group with final concentration of 200 μM; test compounds 67, 78, 85, 92 and 101 were formulated into dose groups with a final concentration of 100 μM; 50 mM positive control SAM was formulated with water to a dose group with final concentration of 50 μM, and a 40 mM positive control silymarin was formulated with water to two concentration dose groups with final concentration of 100 μM and 200 μM. A normal control group (zebrafish treated with fish farming water) and a model control group were set at the same time, and the total volume of each well was 3 mL. Except for the normal control group, the other experimental groups were treated with thioacetamide for 72 hours and stained with Oil Red O. After staining, 10 zebrafish were randomly selected from each experimental group and photographed under a dissecting microscope, NIS-Elements D 3.10 advanced image processing software was used to perform image analysis and collect data, the total optical density (S) of zebrafish liver fat was statistically analyzed, and for the inhibitory effect of each experimental group on liver steatosis of zebrafishwas evaluated by the following formula, the results of statistical analysis were expressed as mean±SE: Inhibition rate of liver steatosis (%)=[S(model control group)−S(test compound group)]/[S(model control group)−S(normal control group)]×100%\nStatistical analysis was performed using analysis of variance and Dunnett's T-test, and p<0.05 indicated a significant difference. […]"}}, "note": "Where two headings read alike, the source gives them in different places.", "data": [{"smiles": "COc1cc(C2Oc3cc(C4Oc5cc(O)cc(O)c5CC4O)cc(O)c3OC2CO)ccc1O", "note": "(stereo not shown) [Compound 7, 2-{8-hydroxy-3-(4-hydroxy-3-methoxyphenyl)-2-hydroxymethyl-2,3-dihydrobenzo[b][1,4]dioxan-6-yl}chroman-3,5,7-triol]", "values": [{"measurement": "solubility at 2 h", "setting": "[1]; PBS pH = 4.0, 25° C.", "value": 209, "unit": "µM"}, {"measurement": "solubility at 2 h", "setting": "[1]; PBS pH = 7.4, 25° C.", "value": 214, "unit": "µM"}, {"measurement": "Solubility in PBS buffer solution compared with silymarin (in words)", "setting": "[1]; pH 4.0 and 7.4", "value": "significantly higher than that of silymarin"}, {"measurement": "MTD at 14 days", "setting": "[2]", "value": 3000, "unit": "mg/kg"}, {"measurement": "Therapeutic effect on non-alcoholic fatty liver of zebrafish (in words)", "setting": "[3]; 100 μM", "value": "significant therapeutic effects"}, {"measurement": "The total optical density of liver fat", "setting": "[3]; 100 μM", "value": "17835 ± 351", "unit": "Pixels"}, {"measurement": "Therapeutic effect on zebrafish non-alcoholic fatty liver (in words)", "setting": "[3]; 200 μM", "value": "significant therapeutic effect"}, {"measurement": "The total optical density of liver fat", "setting": "[3]; 200 μM", "value": "18090 ± 437", "unit": "Pixels"}, {"measurement": "inhibition at 100 µM", "setting": "[3]; Danio rerio, 100 μM, read-out: Inhibition rate of liver steatosis", "value": 98, "unit": "%"}, {"measurement": "inhibition at 200 µM", "setting": "[3]; Danio rerio, 200 μM, read-out: Inhibition rate of liver steatosis", "value": 93, "unit": "%"}]}]}
